These results are taken from patent US4705805A, “Antithrombotic agent” (priority 1978, dated 1987).

Series [1] concerns rabbit blood platelets (platelet rich plasma), collagen-induced aggregation. Description: inhibition of platelet aggregation in rabbit platelet rich plasma (in vitro), induced by collagen. Conditions: rabbit PRP; for inhibition at 30 µg/mL / inhibition at 100 µg/mL / inhibition at 10 µg/mL / inhibition at 1 µg/mL / inhibition at 3 µg/mL: Oryctolagus cuniculus, Platelet, read-out: percentage of inhibition, collagen; for inhibition at 30 µg/mL: 30 μg/ml; for inhibition at 10 µg/mL: 10 μg/ml; for inhibition at 1 µg/mL: 1 μg/ml; for inhibition at 3 µg/mL: 3 μg/ml. The format is cell-based. As to the method: (§1) In this example, the inhibition of platelet aggregation in rabbit platelet rich plasma (in vitro) is tested.
(§2) In this test, 9 vol. of blood is sampled from the carotid artery of rabbits (2 to 2.5 Kg) and placed in a silicon-coated flask containing 1 vol. of 3.8% sodium citrate. The thus obtained blood is centrifuged at 1,000 rpm for 15 minutes to obtain platelet rich plasma (referred to as "PRP" hereinafter). The aggregation of blood platelets is observed using an aggregometer (made by Bryston Co.) and the degree of aggregation after the addition of aggregation promoting substances is measured by nephelometry, i.e., through increase in light transmission.
(§3) The PRP (0.9 ml) is placed in a silicon-coated cuvett of the aggregometer. Then, 0.05 ml of physiological saline solution containing various concentrations of test reagents or control reagents is added and the mixture is allowed to stand for one minute. Compounds promoting aggregation are then added and the absorbancy of the solution is measured and the percent inhibition of aggregation is calculated according to the following equation: [formula] C: Transmittancy showing the maximum percent aggregation by physiological saline solution
(§4) D: Transmittancy showing the maximum percent aggregation by sample
(§5) Test for the inhibition of platelet aggregation induced by ADP, collagen and thrombin.

Series [2] deals with rabbit blood platelets (platelet rich plasma), ADP-induced aggregation. In words: inhibition of platelet aggregation in rabbit platelet rich plasma (in vitro), induced by ADP. Type of series: cell-based. As to conditions: rabbit PRP, ADP 10^-5 M; for inhibition at 30 µg/mL / inhibition at 100 µg/mL / inhibition at 10 µg/mL / inhibition at 3 µg/mL: Oryctolagus cuniculus, Platelet, read-out: percentage of inhibition, ADP; for inhibition at 30 µg/mL: 30 μg/ml; for inhibition at 10 µg/mL: 10 μg/ml; for inhibition at 3 µg/mL: 3 μg/ml. Here is the method: as §1, §2, §3, §4, §5

A short description of series [3]: acute toxicity, Behrens-Karber's method. The format is in vivo. Conditions: in vivo; mouse, oral. As to the method:
In this example, the acute toxicity of compounds of the invention is determined by Behrens-Karber's method using, 5 male dd-strain for each group weighing 20±1 g. A 0.3% CMC suspension of the test compound (concentration of the test compound: 100 mg/ml) is then orally administered to each mouse.

Series [4] has as its system human platelet rich plasma, collagen-induced aggregation. In words: inhibition of platelet aggregation in human platelet rich plasma, induced by collagen. Type of series: cell-based. As to conditions: human PRP, read-out: percentage inhibition, collagen. Here is the method: as §2, §3, §4
(§6) In this example, the same procedures are repeated as in Example 10 except that human platelet rich plasma is used in place of rabbit platelet rich plasma.

The subject of series [5] is human platelet rich plasma, ADP-induced aggregation. In words: inhibition of platelet aggregation in human platelet rich plasma, induced by ADP. Type of series: cell-based. Conditions: human PRP, read-out: percentage inhibition, ADP. Here is the method: as §2, §3, §4, §6

As for “2,2'-dithiobis(N-naphthylbenzamide) [Compound XXXIX]”, the “percentage of inhibition, collagen” value in series [1] (100 μg/ml) came out at 12%. Also, the “percentage of inhibition, ADP” value in series [2] (100 μg/ml) was 25%.

The term inhibition denotes the change of the read-out against control, counted positive when it falls. What is called LD50 is the dose at which mortality reaches 50%. Consider `CCCCNC(=O)c1ccccc1SSc1ccccc1C(=O)NCCCC` [Compound I, 2,2'-dithiobis(N-n-butylbenzamide)], for which the inhibition at 30 µg/mL came to 16.5% in series [1] and 13.4% in series [2]. The inhibition at 100 µg/mL in series [1] (100 μg/ml) is 100%; in series [2] (100 μg/ml), 46.6%. Moreover, in series [3], the LD50 was at least 300 mg/kg.

Turning to `CCCCCCCCCCCCNC(=O)c1ccccc1SSc1ccccc1C(=O)NCCCCCCCCCCCC` [Compound VI, 2,2'-dithiobis(N-dodecylbenzamide)], the inhibition at 30 µg/mL in series [1] and in series [2] was 0% in each case. Moreover, the inhibition at 100 µg/mL amounted to 89% in series [1] (100 μg/ml) and 35% in series [2] (100 μg/ml).

Take `CCCCCCCCCCCCCCCCCCNC(=O)c1ccccc1SSc1ccccc1C(=O)NCCCCCCCCCCCCCCCCCC` [Compound VII, 2,2'-dithiobis(N-octadecylbenzamide)]: the inhibition at 30 µg/mL in series [1] and in series [2] was 0% each time. Also, the values for the inhibition at 100 µg/mL in series [1] (100 μg/ml) and in series [2] (100 μg/ml) were 38% and 10%, respectively.

Regarding `O=C(Nc1cccc(Cl)c1)c1ccccc1SSc1ccccc1C(=O)Nc1cccc(Cl)c1` [Compound XI, 2,2'-dithiobis(N-m-chlorophenylbenzamide)], the inhibition at 10 µg/mL in series [1] and in series [2] was 0% each time. Further, the inhibition at 30 µg/mL amounted to 99% in series [1] and 29% in series [2]. The inhibition at 100 µg/mL in series [1] (100 μg/ml) worked out at 100%; in series [2] (100 μg/ml), 96%.

For `O=C(c1ccccc1SSc1ccccc1C(=O)N(c1ccccc1)c1ccccc1)N(c1ccccc1)c1ccccc1` [Compound XIII, 2,2'-dithiobis(N-diphenylbenzamide)], the inhibition at 30 µg/mL was 12.2% in series [1] and 16% in series [2]. Moreover, the inhibition at 100 µg/mL was 47% in series [1] (100 μg/ml) and 60% in series [2] (100 μg/ml).

`CC(CCc1ccccc1)NC(=O)c1ccccc1SSc1ccccc1C(=O)NC(C)CCc1ccccc1` (stereo not drawn) [Compound XIV, 2,2'-dithiobis[N-(1-methyl-3-phenylpropyl)]benzamide]: the inhibition at 30 µg/mL in series [1] is 24%; in series [2], 28%.

Regarding `O=C(NCCCO)c1ccccc1SSc1ccccc1C(=O)NCCCO` [Compound XVI, 2,2'-dithiobis(N-3-hydroxypropylbenzamide)], in series [1], the inhibition at 1 µg/mL came to 8%, the inhibition at 3 µg/mL worked out at 50% and the inhibition at 10 µg/mL came to 78%. In addition, the inhibition at 100 µg/mL in series [1] (100 μg/ml) turned out to be 100%. For the same molecule, in series [2], the inhibition at 3 µg/mL came out at 42% and the inhibition at 10 µg/mL was 64%. Also, the inhibition at 100 µg/mL in series [2] (100 μg/ml) worked out at 88%.

For `O=C(NCCCCO)c1ccccc1SSc1ccccc1C(=O)NCCCCO` [Compound XVII, 2,2'-dithiobis(N-4-hydroxybutylbenzamide)], the inhibition at 3 µg/mL in series [1] was 0%. Moreover, the inhibition at 10 µg/mL in series [1] came out at 97%. For the same molecule, the inhibition at 30 µg/mL came out at 100% in series [1] and 45% in series [2]. Moreover, the inhibition at 100 µg/mL in series [1] (100 μg/ml) and in series [2] (100 μg/ml) was 100% each time.

On to `CCCCCCCCCCCCCCCC(=O)OCCNC(=O)c1ccccc1SSc1ccccc1C(=O)NCCOC(=O)CCCCCCCCCCCCCCC` [Compound XX, 2,2'-dithiobis(N-2-hexadecanoyloxyethylbenzamide)], for which the inhibition at 30 µg/mL in series [1] and in series [2] was 0% throughout. In addition, the inhibition at 100 µg/mL in series [1] (100 μg/ml) is 33%; in series [2] (100 μg/ml), 23%.

Take `CCCCCCCCCCCC(=O)OCCCNC(=O)c1ccccc1SSc1ccccc1C(=O)NCCCOC(=O)CCCCCCCCCCC` [Compound XXI, 2,2'-dithiobis(N-dodecanoyloxypropylbenzamide)]: the inhibition at 30 µg/mL in series [1] was 0%; in series [2] it was 5%. In addition, the inhibition at 100 µg/mL in series [1] (100 μg/ml) was 33%; in series [2] (100 μg/ml), 32%.

With `CCCCCCCCCCCCCCCC(=O)OCCCNC(=O)c1ccccc1SSc1ccccc1C(=O)NCCCOC(=O)CCCCCCCCCCCCCCC` [Compound XXII, 2,2'-dithiobis(N-hexadecanoyloxypropylbenzamide)], the inhibition at 30 µg/mL in series [1] and in series [2] was 0% each time. Besides, the inhibition at 100 µg/mL in series [1] (100 μg/ml) worked out at 18%; in series [2] (100 μg/ml) it was 40%.

As to `CCCCCCCCCCCC(=O)OC(C)CNC(=O)c1ccccc1SSc1ccccc1C(=O)NCC(C)OC(=O)CCCCCCCCCCC` (stereo not drawn) [Compound XXIII, 2,2'-dithiobis(N-2-dodecanoyloxypropylbenzamide)], the inhibition at 30 µg/mL in series [1] was 52%; in series [2] it was 19%. The inhibition at 100 µg/mL in series [1] (100 μg/ml) was 100%; in series [2] (100 μg/ml), 93%.

On to `CCCCCCCCCCCCCCCC(=O)OC(C)CNC(=O)c1ccccc1SSc1ccccc1C(=O)NCC(C)OC(=O)CCCCCCCCCCCCCCC` (stereo not drawn) [Compound XXIV, 2,2'-dithiobis(N-2-hexadecanoyloxypropylbenzamide)], for which the inhibition at 30 µg/mL is 19% in series [1] and 0% in series [2]. The inhibition at 100 µg/mL in series [1] (100 μg/ml) was 86%; in series [2] (100 μg/ml), 59%.

As to `CN1CCN(C(=O)c2ccccc2SSc2ccccc2C(=O)N2CCN(C)CC2)CC1` [Compound XXXII, 2,2'-dithiobis(N'-methylbenzpiperazide)], the inhibition at 30 µg/mL came out at 34% in series [4] (30 μg/ml), 100% in series [1], 15% in series [5] (30 μg/ml) and 100% in series [2]. The figures for the inhibition at 100 µg/mL in series [4] (100 μg/ml) and in series [5] (100 μg/ml) were 100% and 60%, respectively. Besides, the inhibition at 1 µg/mL in series [1] came out at 2%. In addition, the inhibition at 3 µg/mL was found to be 59% in series [1] and 26% in series [2]. In addition, the values for the inhibition at 10 µg/mL in series [1] and in series [2] were 90% and 62%, respectively.

Take `O=C(c1ccccc1SSc1ccccc1C(=O)N1CCN(C(c2ccccc2)c2ccccc2)CC1)N1CCN(C(c2ccccc2)c2ccccc2)CC1` [Compound XXXIII, 2,2'-dithiobis(N'-diphenylmethylbenzpiperazide)]: the inhibition at 30 µg/mL in series [1] turned out to be 22%; in series [2], 16%.

Consider `COC(CNC(=O)c1ccccc1SSc1ccccc1C(=O)NCC(OC)OC)OC` [Compound XXXIV, 2,2'-dithiobis(N-2,2-di-methoxyethylbenzamide)], for which, in series [1], the inhibition at 3 µg/mL was 21%, the inhibition at 10 µg/mL is 87% and the inhibition at 30 µg/mL came out at 100%. Besides, in series [2], the inhibition at 3 µg/mL was 21%, the inhibition at 10 µg/mL was 35% and the inhibition at 30 µg/mL is 83%.

Consider `CCOCCCNC(=O)c1ccccc1SSc1ccccc1C(=O)NCCCOCC` [Compound XXXV, 2,2'-dithiobis(N-3-ethyloxypropylbenzamide)], for which, in series [1], the inhibition at 10 µg/mL came out at 15% and the inhibition at 30 µg/mL turned out to be 31%. Besides, the inhibition at 100 µg/mL in series [1] (100 μg/ml) was 100%. In series [2] (100 μg/ml), the inhibition at 100 µg/mL came out at 35%.

As to `O=C(NC1CCC(O)CC1)c1ccccc1SSc1ccccc1C(=O)NC1CCC(O)CC1` (stereo not drawn) [Compound XXXVI, 2,2'-dithiobis[N-(4-hydroxycyclohexyl)benzamide]], the inhibition at 30 µg/mL in series [1] amounted to 8%. In addition, the figures for the inhibition at 100 µg/mL in series [1] (100 μg/ml) and in series [2] (100 μg/ml) were 95% and 35%, respectively.

On to `O=C(NCN1CCCCC1)c1ccccc1SSc1ccccc1C(=O)NCN1CCCCC1` [Compound XXXVII, 2,2'-dithiobis(N-piperidinylmethylbenzamide)], for which the inhibition at 100 µg/mL in series [2] (100 μg/ml) turned out to be 20%.

In the case of `O=C(NCC(O)c1ccccc1)c1ccccc1SSc1ccccc1C(=O)NCC(O)c1ccccc1` (stereo not drawn) [Compound XXXVIII, 2,2'-dithiobis(N-2-hydroxy-2-phenylethylbenzamide)], the inhibition at 100 µg/mL in series [1] (100 μg/ml) was determined as 19%; in series [2] (100 μg/ml), 12%.

For the molecule `Nc1ncnc2c1ncn2[C@@H]1O[C@H](CO)[C@@H](O)[C@H]1O` [adenosine, reference compound], in series [2] (100 μg/ml), the inhibition at 100 µg/mL is 39%.
